Data published in PMC9120017, “Inhibition mechanism of the chloride channel TMEM16A by the pore blocker 1PBC” (Nature Communications, 2022).
Where two headings read alike, the source gives them in different places.

Target: T1, mouse TMEM16A mutant V599A (Mus musculus, UniProt Q8BHY3, V599A)
T1 construct: expressed in transfected cells; host or cells: HEK293T
T1 sequence (Q8BHY3 1-960 V599A): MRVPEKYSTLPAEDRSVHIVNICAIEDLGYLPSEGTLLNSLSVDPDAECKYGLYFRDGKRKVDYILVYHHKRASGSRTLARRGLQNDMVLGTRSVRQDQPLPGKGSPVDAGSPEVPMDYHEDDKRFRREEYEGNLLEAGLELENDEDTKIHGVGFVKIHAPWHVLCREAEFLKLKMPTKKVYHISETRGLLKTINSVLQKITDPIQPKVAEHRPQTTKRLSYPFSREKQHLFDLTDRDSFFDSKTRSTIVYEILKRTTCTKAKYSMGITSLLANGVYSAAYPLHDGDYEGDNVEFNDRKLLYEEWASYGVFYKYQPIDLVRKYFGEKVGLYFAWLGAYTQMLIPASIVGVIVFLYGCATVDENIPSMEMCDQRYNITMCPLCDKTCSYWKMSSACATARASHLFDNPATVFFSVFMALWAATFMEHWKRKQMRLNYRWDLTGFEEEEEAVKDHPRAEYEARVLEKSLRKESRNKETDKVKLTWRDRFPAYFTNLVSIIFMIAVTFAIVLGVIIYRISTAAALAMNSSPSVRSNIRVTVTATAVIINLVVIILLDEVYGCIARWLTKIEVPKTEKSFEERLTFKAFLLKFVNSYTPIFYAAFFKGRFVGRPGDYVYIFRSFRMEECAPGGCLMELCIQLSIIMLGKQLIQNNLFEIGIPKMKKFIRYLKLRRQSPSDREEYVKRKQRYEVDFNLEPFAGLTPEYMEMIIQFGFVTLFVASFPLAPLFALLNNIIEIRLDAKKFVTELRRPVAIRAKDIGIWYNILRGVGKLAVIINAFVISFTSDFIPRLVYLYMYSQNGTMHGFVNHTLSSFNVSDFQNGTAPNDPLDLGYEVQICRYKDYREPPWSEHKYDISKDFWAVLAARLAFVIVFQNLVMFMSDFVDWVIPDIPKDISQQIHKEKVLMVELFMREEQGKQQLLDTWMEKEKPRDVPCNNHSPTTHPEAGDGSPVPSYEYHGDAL
Test: Inside-out patch recording of 1PBC block, mutant V599A
Type: cell-based
Details: for IC50: 15 µM Ca2+
Experimental: HEK293T cells (ATCC CRL-1573) were maintained in Dulbecco’s modified Eagle’s medium (DMEM; Sigma-Aldrich) supplemented with 10 U ml^−1 penicillin, 0.1 mg ml^−1 streptomycin (Sigma-Aldrich), 2 mM L-glutamine (Sigma-Aldrich), and 10% FBS (Sigma-Aldrich) in a humidified atmosphere containing 5% CO2 at 37 °C. HEK293S GnTI^− cells (ATCC CRL-3022) were maintained in HyClone HyCell TransFx-H medium (GE Healthcare) supplemented with 10 U ml^−1 penicillin, 0.1 mg ml^−1 streptomycin, 4 mM L-glutamine, 0.15% poloxamer 188 (Sigma-Aldrich), and 1% FBS in an atmosphere containing 5% CO2 at 185 rpm at 37 °C. The ac splice variant of mouse TMEM16A (UniProt ID: Q8BHY3), mouse TMEM16B (UniProt ID: Q8CFW1), or mouse TMEM16F (UniProt ID: Q6P9J9) bearing a 3C cleavage site, a Venus YFP, a Myc tag, and a Streptavidin-binding peptide (SBP) downstream of the open reading frame in a modified pcDNA3.1 vector (Invitrogen) were used as described previously[21],[31]. Mutations were introduced using a modified QuikChange method[58] and were verified by sequencing.
HEK293T cells were transfected with 3–4 μg DNA per 6 cm Petri dish using the calcium phosphate co-precipitation method and were used within 24–96 h after transfection. Recordings were performed on inside-out patches excised from HEK293T cells expressing the construct of interest. Patch pipettes were pulled from borosilicate glass capillaries (O.D. 1.5 mm, I.D. 0.86 mm, Sutter Instrument) and were fire-polished with a microforge (Narishige) before use. Pipette resistance was typically 3–8 MΩ when filled with the recording solutions detailed below. Seal resistance was typically 4 GΩ or higher. Voltage-clamp recordings were made using Axopatch 200B, Digidata 1550, and Clampex 10.7 (Molecular Devices). Analog signals were filtered with the in-built 4-pole Bessel filter at 10 kHz and were digitized at 20 kHz. Solution exchange was achieved using a gravity-fed system through a theta glass pipette mounted on an ultra-fast piezo-driven stepper (Siskiyou). […] All recordings were performed at 20 °C.
A symmetrical ionic condition was used throughout. Stock solution with Ca^2+-EGTA contained 150 mM NaCl, 5.99 mM Ca(OH)2, 5 mM EGTA, and 10 mM HEPES at pH 7.40. Stock solution with EGTA contained 150 mM NaCl, 5 mM EGTA, and 10 mM HEPES at pH 7.40. Free Ca^2+ concentrations were adjusted by mixing the stock solutions at the required ratios calculated using the WEBMAXC program (http://web.stanford.edu/~cpatton/webmaxcS.htm). Patch pipettes were filled with the stock solution with Ca^2+-EGTA, which has a free Ca^2+ concentration of 1 mM. 1PBC (ChemBridge) stock was reconstituted in anhydrous DMSO (Sigma-Aldrich) at 100 mM and stored at −20 °C. Working solutions with 1PBC were prepared by serial dilution. Unless otherwise stated, experiments were performed at a saturating Ca^2+ concentration as shown in Supplementary Table 1 and the primary data were corrected for current rundown as described previously[21],[25].
Concentration-response relations, obtained from the ratio of the I-V plots before and after the application of the blocker, were fitted to the Hill equation,1 I/Imax=1/1+IC50/[blocker]^h where I/Imax is the normalized current responses, IC50 defines the concentration at which inhibition is at its half-maximum, and h is the Hill coefficient.

In the case of `N#Cc1c(C(F)(F)F)cc(O)n2c1nc1ccccc12` [1PBC], the IC50 (0 mV) is reported as 69.5 µM, the remaining activity at 3 µM (0 mV, 1PBC conc 3, read-out: relative current in 1PBC (avr)) is reported as 93.5% and the remaining activity at 10 µM (0 mV, 1PBC conc 10, read-out: relative current in 1PBC (avr)) is reported as 87.7%. The remaining activity at 30 µM (0 mV, 1PBC conc 30, read-out: relative current in 1PBC (avr)) was 72%, the remaining activity at 100 µM (0 mV, 1PBC conc 100, read-out: relative current in 1PBC (avr)) was 39.4% and the remaining activity at 3 µM (3 µM 1PBC, +80 mV, saturating Ca2+ (15 µM), read-out: I/Imax) was 93.3%. It also gave a remaining activity at 3 µM (3 µM 1PBC, -80 mV, saturating Ca2+ (15 µM), read-out: I/Imax) of 94.9%, a remaining activity at 10 µM (10 µM 1PBC, +80 mV, saturating Ca2+ (15 µM), read-out: I/Imax) of 84% and a remaining activity at 10 µM (10 µM 1PBC, -80 mV, saturating Ca2+ (15 µM), read-out: I/Imax) of 91.7%. The remaining activity at 30 µM (30 µM 1PBC, +80 mV, saturating Ca2+ (15 µM), read-out: I/Imax) was 62.6%, the remaining activity at 30 µM (30 µM 1PBC, -80 mV, saturating Ca2+ (15 µM), read-out: I/Imax) was 78.1% and the remaining activity at 100 µM (100 µM 1PBC, +80 mV, saturating Ca2+ (15 µM), read-out: I/Imax) was 27.8%. The remaining activity at 100 µM (100 µM 1PBC, -80 mV, saturating Ca2+ (15 µM), read-out: I/Imax) was 50.8%, the IC50 (20 mV) was 61.3 µM and the remaining activity at 3 µM (20 mV, 1PBC conc 3, read-out: relative current in 1PBC (avr)) was 93.3%. It also gave a remaining activity at 10 µM (20 mV, 1PBC conc 10, read-out: relative current in 1PBC (avr)) of 86.6%, a remaining activity at 30 µM (20 mV, 1PBC conc 30, read-out: relative current in 1PBC (avr)) of 69.3% and a remaining activity at 100 µM (20 mV, 1PBC conc 100, read-out: relative current in 1PBC (avr)) of 36%. For the same compound, the IC50 (40 mV) was 55.5 µM, the remaining activity at 3 µM (40 mV, 1PBC conc 3, read-out: relative current in 1PBC (avr)) was 93.6% and the remaining activity at 10 µM (40 mV, 1PBC conc 10, read-out: relative current in 1PBC (avr)) was 86.2%. For the same compound, the remaining activity at 30 µM (40 mV, 1PBC conc 30, read-out: relative current in 1PBC (avr)) was 67.1%, the remaining activity at 100 µM (40 mV, 1PBC conc 100, read-out: relative current in 1PBC (avr)) was 32.9% and the IC50 (60 mV) was 48.9 µM. For the same compound, the remaining activity at 3 µM (60 mV, 1PBC conc 3, read-out: relative current in 1PBC (avr)) was 92.4%, the remaining activity at 10 µM (60 mV, 1PBC conc 10, read-out: relative current in 1PBC (avr)) was 84.6% and the remaining activity at 30 µM (60 mV, 1PBC conc 30, read-out: relative current in 1PBC (avr)) was 64.2%. The remaining activity at 100 µM (60 mV, 1PBC conc 100, read-out: relative current in 1PBC (avr)) was 30%, the “log-fold IC50 (change of mutant vs WT)” value (80 mV) was 1.35 and the IC50 (80 mV) was 45.8 µM. For the same compound, the remaining activity at 3 µM (80 mV, 1PBC conc 3, read-out: relative current in 1PBC (avr)) was 93.3%, the remaining activity at 10 µM (80 mV, 1PBC conc 10, read-out: relative current in 1PBC (avr)) was 84% and the remaining activity at 30 µM (80 mV, 1PBC conc 30, read-out: relative current in 1PBC (avr)) was 62.6%. It also gave a remaining activity at 100 µM (80 mV, 1PBC conc 100, read-out: relative current in 1PBC (avr)) of 27.8%, an IC50 (100 mV) of 45 µM and a remaining activity at 3 µM (100 mV, 1PBC conc 3, read-out: relative current in 1PBC (avr)) of 94.2%. For the same compound, the remaining activity at 10 µM (100 mV, 1PBC conc 10, read-out: relative current in 1PBC (avr)) was 83.7%, the remaining activity at 30 µM (100 mV, 1PBC conc 30, read-out: relative current in 1PBC (avr)) was 62.5% and the remaining activity at 100 µM (100 mV, 1PBC conc 100, read-out: relative current in 1PBC (avr)) was 26.8%. The IC50 (120 mV) was 45.1 µM, the remaining activity at 3 µM (120 mV, 1PBC conc 3, read-out: relative current in 1PBC (avr)) was 95.5% and the remaining activity at 10 µM (120 mV, 1PBC conc 10, read-out: relative current in 1PBC (avr)) was 83.7%. For the same compound, the remaining activity at 30 µM (120 mV, 1PBC conc 30, read-out: relative current in 1PBC (avr)) was 62.1%, the remaining activity at 100 µM (120 mV, 1PBC conc 100, read-out: relative current in 1PBC (avr)) was 27% and the IC50 (140 mV) was 48.5 µM. The remaining activity at 3 µM (140 mV, 1PBC conc 3, read-out: relative current in 1PBC (avr)) was 97.8%, the remaining activity at 10 µM (140 mV, 1PBC conc 10, read-out: relative current in 1PBC (avr)) was 86.2% and the remaining activity at 30 µM (140 mV, 1PBC conc 30, read-out: relative current in 1PBC (avr)) was 63.1%. The remaining activity at 100 µM (140 mV, 1PBC conc 100, read-out: relative current in 1PBC (avr)) was 28.2%.
